This is an account of results in PubChem BioAssay (NCI).

Some test systems named below: A498 renal; BT-549 breast; HCT-116 colon; HL-60(TB) leukemia; KM12 colon; M14 melanoma; MDA-N; NCI-H226 lung; NCI-H460 lung; SF-295 CNS; SK-MEL-5 melanoma; SNB-19 CNS; SR leukemia; UACC-257 melanoma; HOP-62 NSCLC; HT29 colon; IGROV1 ovarian; NCI-H23 lung; U251 CNS; SF-268 CNS.
Test in all cases: DTP human tumour cell line panel, 48 h

The TGI is the concentration at which net growth stops. A low value points to greater sensitivity of the cells.

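Compound exposure: 48 hours, 5 concentrations, 96-well plates. TGI: total growth inhibition.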

With `CN=C(N)N/N=C(\C)c1ccc2oc3ccc(/C(C)=N/NC(N)=NC)cc3c2c1`, the TGI in the test with A498 renal was above 31.3 µM; with BT-549 breast, above 22.8 µM; in the test on HCT-116 colon it was above 100 µM; in the test with HL-60(TB) leukemia, 10.7 µM; with KM12 colon, above 100 µM; with M14 melanoma, above 100 µM. The TGI with MDA-N was above 30.6 µM; with NCI-H226 lung it was 4.73 µM; with NCI-H460 lung, above 100 µM; in the test with SF-295 CNS, above 100 µM; with SK-MEL-5 melanoma, above 100 µM; in the test on SNB-19 CNS, above 100 µM. In addition, the results for the total growth inhibition concentration (TGI) in the test on SR leukemia and in the test with UACC-257 melanoma were 4.75 µM and above 68.1 µM, respectively.

On to `CN1C(=O)C(O)CC1c1cccc(F)c1` (stereo not drawn), for which the TGI in the test with A498 renal, in the test with BT-549 breast, in the test with HCT-116 colon, in the test with HL-60(TB) leukemia, with HOP-62 NSCLC and in the test with HT29 colon was above 100 µM in each case. Further, the TGI in the test on IGROV1 ovarian, in the test with KM12 colon, in the test on M14 melanoma, in the test on MDA-N, with NCI-H226 lung and in the test on NCI-H23 lung was above 100 µM throughout. In addition, the TGI in the test on NCI-H460 lung, in the test with SF-295 CNS, in the test with SK-MEL-5 melanoma, in the test on SNB-19 CNS, in the test on SR leukemia and with U251 CNS was above 100 µM each time. The compound further returned a TGI with UACC-257 melanoma above 100 µM.

For `CC(=O)Nc1ccc(N2C(=O)/C(=C\c3cccc(Oc4ccccc4)c3)SC2c2ccccc2)cc1` (stereo not drawn), the TGI was above 100 µM in the test on A498 renal; above 100 µM in the test with BT-549 breast; 39.6 µM with HCT-116 colon; above 100 µM with HL-60(TB) leukemia; 56.6 µM with HOP-62 NSCLC; 90.5 µM in the test with KM12 colon. The TGI was above 100 µM in the test on M14 melanoma; 42.3 µM with MDA-N; above 100 µM in the test on NCI-H226 lung; above 100 µM with NCI-H23 lung; above 100 µM in the test with NCI-H460 lung; above 100 µM in the test with SF-268 CNS. For the same compound, the TGI in the test on SF-295 CNS was above 100 µM; with SK-MEL-5 melanoma it was 68.6 µM; with SNB-19 CNS, 48.5 µM; in the test on SR leukemia, 56.4 µM; in the test with U251 CNS, 30.4 µM; with UACC-257 melanoma, above 100 µM.

For the compound `NC(N)=NC(N)=Nc1c(F)c(F)c(F)c(F)c1F`, the TGI in the test on A498 renal, with BT-549 breast, with HCT-116 colon, in the test on HOP-62 NSCLC, in the test with HT29 colon and with IGROV1 ovarian was above 100 µM each time. Also, the TGI in the test on KM12 colon was above 100 µM; in the test on M14 melanoma, 48.4 µM; in the test on MDA-N it was above 100 µM; with NCI-H226 lung, above 100 µM; in the test with NCI-H23 lung, above 100 µM; in the test on NCI-H460 lung it was above 100 µM. In addition, the TGI with SF-268 CNS, in the test on SF-295 CNS, in the test on SK-MEL-5 melanoma, in the test on SNB-19 CNS, in the test with SR leukemia and in the test with U251 CNS was above 100 µM each time. The compound also gave a TGI with UACC-257 melanoma above 100 µM.

Consider `CC(C)(C)OC(=O)CN1CCNCCN(CC(=O)OC(C)(C)C)CC1`, for which the total growth inhibition concentration (TGI) was above 100 µM in the test on A498 renal; above 100 µM with BT-549 breast; above 100 µM in the test with HCT-116 colon; 86.1 µM in the test on HL-60(TB) leukemia; above 100 µM in the test on HOP-62 NSCLC; above 100 µM with HT29 colon. Moreover, the total growth inhibition concentration (TGI) in the test with IGROV1 ovarian, in the test with KM12 colon, in the test on M14 melanoma, in the test on MDA-N, in the test with NCI-H226 lung and in the test on NCI-H460 lung was above 100 µM in each case. Also, the TGI in the test with SF-295 CNS, with SK-MEL-5 melanoma, in the test on SNB-19 CNS, in the test on SR leukemia and with UACC-257 melanoma was above 100 µM throughout.

For the compound `CCCCCCCCCCCC1N=C(N)NC(CCCO)=C1C(=O)OC` (stereo not drawn), the TGI in the test with A498 renal came out at 41.6 µM; in the test on BT-549 breast it was 23.1 µM; in the test on HCT-116 colon it was 3.01 µM; with HL-60(TB) leukemia, 2.81 µM; in the test with HOP-62 NSCLC it was 8.53 µM; in the test with HT29 colon, 3.05 µM. In addition, the total growth inhibition concentration (TGI) in the test with IGROV1 ovarian is 4.73 µM; with KM12 colon, 2.81 µM; in the test with MDA-N it was above 100 µM; in the test on NCI-H226 lung, 32 µM; in the test with NCI-H23 lung, 4.94 µM; with SF-268 CNS, 5.81 µM. In addition, the TGI in the test with SF-295 CNS is 8.59 µM; in the test with SK-MEL-5 melanoma, 6.33 µM; in the test with SR leukemia it was above 100 µM; in the test on UACC-257 melanoma, 11.7 µM.

As for `O=C1N[C@@H]([C@H](CCCCCO)OC(=O)c2ccccc2)CO1`, the TGI in the test on A498 renal, with BT-549 breast, with HCT-116 colon, with HL-60(TB) leukemia, in the test on HOP-62 NSCLC and with HT29 colon was above 100 µM in each case. Besides, the TGI in the test with IGROV1 ovarian, in the test with KM12 colon, in the test with MDA-N, in the test with NCI-H226 lung, in the test with NCI-H460 lung and with SF-295 CNS was above 100 µM in each case. Moreover, the TGI in the test with SK-MEL-5 melanoma, in the test on SNB-19 CNS, with SR leukemia, in the test with U251 CNS and in the test with UACC-257 melanoma was above 100 µM throughout.

For the compound `COc1ccc(-c2c(C#N)c(S)n(C3OC(CO)C(O)C(O)C3O)c(=O)c2C#N)cc1` (stereo not drawn), the TGI in the test on A498 renal, in the test on BT-549 breast, in the test with HL-60(TB) leukemia, in the test with HOP-62 NSCLC, with HT29 colon and in the test on IGROV1 ovarian was above 100 µM throughout. The total growth inhibition concentration (TGI) in the test on KM12 colon, in the test with M14 melanoma, in the test with MDA-N, with NCI-H226 lung, in the test on NCI-H23 lung and with NCI-H460 lung was above 100 µM throughout. Besides, the TGI in the test with SF-268 CNS, with SF-295 CNS, in the test with SK-MEL-5 melanoma, in the test with SNB-19 CNS, in the test with SR leukemia and with UACC-257 melanoma was above 100 µM each time.
